Test results: patent US20250154156A1, “QUINAZOLINE DERIVATIVE AS KRAS G12C MUTATION INHIBITOR” (Shenzhen Forward Pharmaceuticals Co., Limited, priority 2022, published 2025)

Tests used:
[1] = target: Ba/F3 (KRAS-G12C-Y96C) cells (Homo sapiens, UniProt P01116, G12C/Y96C, cells depend on it); assay: Proliferation experiment of Ba/F3 (KRAS-G12C-Y96C) cells; format: cell-based; details: 72 hours, Cell Titer-Glo, read-out: Test Example 3 IC50
Experimental: Engineered cell strain Ba/F3 (KRAS-G12C-Y96C) was a cell strain constructed by the inventors according to the methods described in Warmuth M. et al, Curr Opin Oncol. […] The cells were grown at 37° C. in a humidified incubator with […].
(§1) According to the solution described in Cell Titer-Glo Luminescent cell Viability Assay (Promega catalog number #G7570) of Promega Corporation, the number of living cells in the culture was detected. 90 μL of cells (3,000 cells/well) were cultured in a growth medium in a Corning black transparent bottom 96-well plate and were cultured overnight in a 50% CO2 humidified incubator at 37° C. The compound diluted serially in 100% DMSO was added to the cells by a pipette, and the cells were cultured for another 72 hours. 100 μL of the well-mixed Cell Titer-Glo reagent was added to the cells in the 96-well culture plate to lyse the cells and gently mixed. Subsequently, […] was detected on an Envision microplate detector, and the data of each compound was obtained. Finally, the data was input into a suitable software package (such as Prism) for curve fitting analysis.

[2] = target: Ba/F3 (KRAS-G12C-H95Q) cells (Homo sapiens, UniProt P01116, G12C/H95Q, cells depend on it); assay: Proliferation experiment of Ba/F3 (KRAS-G12C-H95Q) cells; format: cell-based; details: 72 hours, Cell Titer-Glo, read-out: Test Example 4 IC50
Sequence of Ba/F3 (KRAS-G12C-H95Q) cells (P01116 whole entry G12C/H95Q): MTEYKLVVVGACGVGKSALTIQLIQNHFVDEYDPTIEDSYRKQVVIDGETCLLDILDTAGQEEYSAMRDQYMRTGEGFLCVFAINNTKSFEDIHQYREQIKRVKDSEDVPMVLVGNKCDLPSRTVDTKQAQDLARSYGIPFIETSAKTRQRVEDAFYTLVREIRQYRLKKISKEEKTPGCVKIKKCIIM
Experimental: Engineered cell strain Ba/F3 (KRAS-G12C-H95Q) was a cell strain constructed by the inventors according to the methods described in Warmuth M. et al, Curr Opin Oncol. […] The cells were grown at 37° C. in a humidified incubator with […].
as §1, with “5%” for “50%”

[3] = target: Ba/F3 (KRAS-G12C-R68S) cells (Homo sapiens, UniProt P01116, G12C/R68S, cells depend on it); assay: Proliferation experiment of Ba/F3 (KRAS-G12C-R68S) cells; format: cell-based; details: 72 hours, Cell Titer-Glo, read-out: Test Example 5 IC50
Sequence of Ba/F3 (KRAS-G12C-R68S) cells (P01116 whole entry G12C/R68S): as the sequence (P01116 whole entry G12C/H95Q) above, with R68S, Q95H counted along it
Experimental: Engineered cell strain Ba/F3 (KRAS-G12C-R68S) was a cell strain constructed by the inventors according to the methods described in Warmuth M. et al, Curr Opin Oncol. […] The cells were grown at 37° C. in a humidified incubator with 5% CO2.
as §1, with “5%” for “50%”

[4] = target: Ba/F3 (KRAS-G12C-Q99L) cells (Homo sapiens, UniProt P01116, G12C/Q99L, cells depend on it); assay: Proliferation experiment of Ba/F3 (KRAS-G12C-Q99L) cells; format: cell-based; details: 72 hours, Cell Titer-Glo, read-out: Test Example 6 IC50
Sequence of Ba/F3 (KRAS-G12C-Q99L) cells (P01116 whole entry G12C/Q99L): as the sequence (P01116 whole entry G12C/H95Q) above, with Q95H, Q99L counted along it
Experimental: Engineered cell strain Ba/F3 (KRAS-G12C-Q99L) was a cell strain constructed by the inventors according to the methods described in Warmuth M. et al, Curr Opin Oncol. […] The cells were grown at 37° C. in a humidified incubator with 5% CO2.
as §1, with “5%” for “50%”

[5] = system: NCI-H358 cells (KRAS G12C mutant cell line); assay: Proliferation experiment of NCI-H358 cells (Cell Titer-Glo); format: cell-based; details: Homo sapiens, 72 hours, read-out: Test Example 1 IC50
Experimental: as §1, with “(8,000” for “(3,000”, “5%” for “50%”

[6] = system: NCI-H23 cells (KRAS G12C mutant cell line); assay: Proliferation experiment of NCI-H23 cells (Cell Titer-Glo); format: cell-based; details: Homo sapiens, 72 hours, read-out: Test Example 2 IC50
Experimental: Human lung cancer cell line NCI-H23 (ATCC, CRL-5800) was a KRAS G12C mutant cell line.
as §1, with “(8,000” for “(3,000”, “5%” for “50%”

[7] = In vitro human liver microsome stability experiment; format: in vitro ADME; details: human liver microsomes; for half-life / microsomal CLint: 1 mg/mL microsome protein, NADPH, 37° C.; for microsomal CLint: read-out: CLint(mic); for CLint scaled: scaled to liver
Experimental: Eight 96-well incubation plates were prepared, named [NT], Blank60, and NCF60, respectively. […] No compound to be tested or control compound was added to the Blank60 plate and samples were taken after 60 minutes of incubation. The NCF60 plate, in which a potassium phosphate buffer was used instead of an NADPH regeneration system solution (Sigma, N0505), was incubated for 60 minutes. […] Only the working solution of microsomes was added to the Blank60 plate, and the incubation plates Blank60, T5, T15, T30, T45, and T60 except TO and NCF60 were then placed in a water bath at 37° C. for pre-incubation for about 10 minutes. To the TO plate sample, 600 μL of a stop solution (acetonitrile:methanol (95:5, v/v) solution containing 100 ng/mL tolbutamide (Sigma, T0891)) was added first, and then an NADPH regeneration system working solution was added. 98 μL of a potassium phosphate buffer was added to each well of the NCF60 plate and incubated for 60 minutes. After the pre-incubation in the incubation plates Blank60, T5, T15, T30, T45, and T60 was complete, 98 μL of the NADPH regeneration system working solution was added to each sample well to initiate the reaction. After an appropriate incubation time (such as 5, 15, 30, 45, and 60 minutes), 600 μL of the stop solution was added to each sample well and control sample well in the Blank60, […] the reaction. All the sample plates were shaken evenly and centrifuged at 3220×g for 20 minutes. 200 μL of each test sample supernatant was taken and diluted into 200 μL of an aqueous solution containing 0.3% formic acid for LC-MS/MS analysis, and 100 μL of the control sample supernatant was taken and diluted into 300 μL of pure water for LC-MS/MS analysis. Calculations were carried out according to the following formulas: […]

Sequence of Ba/F3 (KRAS-G12C-Y96C) cells (P01116 whole entry G12C/Y96C): as the sequence (P01116 whole entry G12C/H95Q) above, with Q95H, Y96C counted along it

| GI50 [1] | GI50 [2] | GI50 [3] | GI50 [4] | IC50 [5] | IC50 [6] | half-life [7] | microsomal CLint [7] | CLint scaled [7] | Structure (SMILES) |
| --- | --- | --- | --- | --- | --- | --- | --- | --- | --- |
| > 5000 nM | > 5000 nM | > 5000 nM | > 5000 nM |  |  |  |  |  | C#Cc1cc(-c2c(F)cc3c(N4CCN(C(=O)C(=C)F)[C@@H](CC#N)C4)nc(OCC45CCCN4CCC5)nc3c2F)c2ccccc2c1 [Compound 26, 2-((2S)-4-(7-(3-ethynylnaphth-1-yl)-6,8-difluoro-2-((tetrahydro-1H-pyrrolizin-7a(5H)-yl)methoxy)quinazolin-4-yl)-1-(2-fluoroacryloyl)piperazin-2-yl)acetonitrile] |
| 3.44 nM | 17.8 nM | 33.3 nM | 11.6 nM | 0.24 nM | 0.58 nM | 26.7 min | 53 µL/min/mg | 49.7 mL/min/kg | C#Cc1cccc2cc(O)cc(-c3c(F)cc4c(N5CCN(C(=O)C(=C)F)[C@@H](CC#N)C5)nc(OC[C@@]56CCCN5C[C@H](F)C6)nc4c3F)c12 [Compound 8A, 2-((2S)-4-(7-(8-ethynyl-3-hydroxynaphth-1-yl)-6,8-difluoro-2-(((2R,7aS)-2-fluorotetrahydro-1H-pyrrolizin-7a(5H)-yl)methoxy)quinazolin-4-yl)-1-(2-fluoroacryloyl)piperazin-2-yl)acetonitrile] |
| > 5000 nM | > 5000 nM | > 5000 nM | > 5000 nM |  |  |  |  |  | C=C(F)C(=O)N1CCN(c2nc(OCC34CCCN3CCC4)nc3c(F)c(-c4cc(O)cc5c(Cl)cccc45)ccc23)C[C@@H]1CC#N [Compound 28, (S)-2-(4-(7-(5-chloro-3-hydroxynaphth-1-yl)-8-fluoro-2-((tetrahydro-1H-pyrrolizin-7a(5H)-yl)methoxy)quinazolin-4-yl)-1-(2-fluoroacryloyl)piperazin-2-yl)acetonitrile] |
| 525 nM | 689 nM | 863 nM | 779 nM | 1.83 nM | 1.44 nM |  |  |  | C=C(F)C(=O)N1CCN(c2nc(OCC34CCCN3CCC4)nc3c(F)c(-c4cccc5cccc(Cl)c45)c(F)cc23)C[C@@H]1CC#N [Compound 6A, 2-((2S)-4-(7-(8-chloronaphth-1-yl)-6,8-difluoro-2-((tetrahydro-1H-pyrrolizin-7a(5H)-yl)methoxy)quinazolin-4-yl)-1-(2-fluoroacryloyl)piperazin-2-yl)acetonitrile] |
| > 5000 nM | > 5000 nM | > 5000 nM | > 5000 nM |  |  |  |  |  | C#Cc1cccc2c(-c3c(F)cc4c(N5CCN(C(=O)C(=C)F)[C@@H](CC#N)C5)nc(OCC56CCCN5CCC6)nc4c3F)cccc12 [Compound 27, 2-((2S)-4-(7-(5-ethynylnaphth-1-yl)-6,8-difluoro-2-((tetrahydro-1H-pyrrolizin-7a(5H)-yl)methoxy)quinazolin-4-yl)-1-(2-fluoroacryloyl)piperazin-2-yl)acetonitrile] |
| > 5000 nM | > 5000 nM | > 5000 nM | > 5000 nM |  |  |  |  |  | C=C(F)C(=O)N1CCN(c2nc(OCC34CCCN3CCC4)nc3c(F)c(-c4cc(O)cc5ccc(Cl)cc45)ccc23)C[C@@H]1CC#N [Compound 29, (S)-2-(4-(7-(7-chloro-3-hydroxynaphth-1-yl)-8-fluoro-2-((tetrahydro-1H-pyrrolizin-7a(5H)-yl)methoxy)quinazolin-4-yl)-1-(2-fluoroacryloyl)piperazin-2-yl)acetonitrile] |
|  |  |  |  | 0.47 nM | 1.71 nM | 24.5 min | 56.5 µL/min/mg | 50.9 mL/min/kg | C#Cc1c(F)ccc2cccc(-c3c(F)cc4c(N5CCN(C(=O)C(=C)F)[C@@H](CC#N)C5)nc(OCC56CCCN5CCC6)nc4c3F)c12 [Compound 19B, 2-((2S)-4-(7-(8-ethynyl-7-fluoronaphth-1-yl)-6,8-difluoro-2-((tetrahydro-1H-pyrrolizin-7a(5H)-yl)methoxy)quinazolin-4-yl)-1-(2-fluoroacryloyl)piperazin-2-yl)acetonitrile] |
|  |  |  |  | 0.6 nM | 0.53 nM |  |  |  | C=C(F)C(=O)N1CCN(c2nc(OCC34CCCN3CCC4)nc3c(F)c(-c4cccc5cccc(Cl)c45)ccc23)C[C@@H]1CC#N [Compound 17, (S)-2-(4-(7-(8-chloronaphth-1-yl)-8-fluoro-2-((tetrahydro-1H-pyrrolizin-7a(5H)-yl)methoxy)quinazolin-4-yl)-1-(2-fluoroacryloyl)piperazin-2-yl)acetonitrile] |
| 473 nM | 709 nM | 929 nM | 589 nM | 1.58 nM | 1.27 nM |  |  |  | C=C(F)C(=O)N1CCN(c2nc(OC[C@@]34CCCN3C[C@H](F)C4)nc3c(F)c(-c4cccc5cccc(Cl)c45)ccc23)C[C@@H]1CC#N [Compound 5] |
| > 5000 nM | > 5000 nM | > 5000 nM | > 5000 nM |  |  |  |  |  | C#Cc1ccc2cccc(-c3c(F)cc4c(N5CCN(C(=O)C(=C)F)[C@@H](CC#N)C5)nc(OCC56CCCN5CCC6)nc4c3F)c2c1 [Compound 25, 2-((2S)-4-(7-(7-ethynylnaphth-1-yl)-6,8-difluoro-2-((tetrahydro-1H-pyrrolizin-7a(5H)-yl)methoxy)quinazolin-4-yl)-1-(2-fluoroacryloyl)piperazin-2-yl)acetonitrile] |
